ChEMBL document CHEMBL1201862, “PubChem BioAssay data set” (2004)
The source made the active and inactive calls.

Experiments:
[1] = target: Mitochondrial peptide methionine sulfoxide reductase (Bos taurus, UniProt P54149); type: functional;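 note: absorbance read-out, biochemical high-throughput dose-response screen for MsrA inhibitors, confirmatory; recombinant bovine MsrA coupled to E. coli TrxB with NADPH and selenocystamine; potency is for inhibitors of MsrA activity on DMSO substrate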
[2] = target: Adenosylmethionine-8-amino-7-oxononanoate aminotransferase (Mycobacterium tuberculosis, UniProt P9WQ81); assay: Mycobacterium tuberculosis BioA enzyme inhibitor Measured in Biochemical System Using Plate Reader - 2163-02_Inhibitor_Dose_CherryPick_Activity.; type: functional, Mycobacterium tuberculosis UT205
Sequence of Adenosylmethionine-8-amino-7-oxononanoate aminotransferase (P9WQ81 whole entry): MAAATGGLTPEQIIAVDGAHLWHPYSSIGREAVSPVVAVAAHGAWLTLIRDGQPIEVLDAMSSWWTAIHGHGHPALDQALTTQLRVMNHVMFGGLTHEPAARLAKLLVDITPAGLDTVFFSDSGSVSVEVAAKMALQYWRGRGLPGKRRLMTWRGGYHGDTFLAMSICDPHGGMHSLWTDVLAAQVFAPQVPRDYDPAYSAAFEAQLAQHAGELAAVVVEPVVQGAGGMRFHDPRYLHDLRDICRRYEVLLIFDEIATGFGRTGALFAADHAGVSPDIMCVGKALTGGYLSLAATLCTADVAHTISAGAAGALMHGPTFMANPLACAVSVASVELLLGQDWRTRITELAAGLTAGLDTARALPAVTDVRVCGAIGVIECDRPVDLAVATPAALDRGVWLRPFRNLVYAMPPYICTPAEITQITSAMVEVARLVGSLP

[3] = target: Melanocortin receptor 4 (Homo sapiens, UniProt P32245); assay: inhibitors of MC4R cAMP signaling – cell-based, TR-FRET, biased antagonists, dose response (AID 602298); type: functional;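 note: antagonist potency against agonist-stimulated cAMP production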
Sequence of Melanocortin receptor 4 (P32245 whole entry): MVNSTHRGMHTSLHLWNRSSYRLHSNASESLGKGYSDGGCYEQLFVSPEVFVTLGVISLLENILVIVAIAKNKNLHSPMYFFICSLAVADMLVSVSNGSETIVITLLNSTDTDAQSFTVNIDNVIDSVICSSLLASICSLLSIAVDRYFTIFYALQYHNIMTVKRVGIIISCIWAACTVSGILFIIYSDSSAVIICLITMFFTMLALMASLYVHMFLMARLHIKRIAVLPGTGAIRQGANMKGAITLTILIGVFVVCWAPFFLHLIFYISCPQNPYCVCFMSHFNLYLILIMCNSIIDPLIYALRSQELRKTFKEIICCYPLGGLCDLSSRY

[4] = cAMP pathway inhibition in counterscreen cell line – TR-FRET cAMP detection, counter-screen for MC4R biased antagonist project, dose response (AID 602305); type: functional, cell-based;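 note: U2OS cells stimulated with forskolin near its EC80 as the cAMP inducer; potency is for inhibition of forskolin-stimulated cAMP signaling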
[5] = target: Ras and Rab interactor 1/Tyrosine-protein kinase ABL1 (Homo sapiens, UniProt P00519+Q13671); type: functional;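 note: biochemical TR-FRET dose-response test measuring inhibition of binding between Rin1 and Abl proteins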
Sequence of Ras and Rab interactor 1/Tyrosine-protein kinase ABL1 (P00519 whole entry): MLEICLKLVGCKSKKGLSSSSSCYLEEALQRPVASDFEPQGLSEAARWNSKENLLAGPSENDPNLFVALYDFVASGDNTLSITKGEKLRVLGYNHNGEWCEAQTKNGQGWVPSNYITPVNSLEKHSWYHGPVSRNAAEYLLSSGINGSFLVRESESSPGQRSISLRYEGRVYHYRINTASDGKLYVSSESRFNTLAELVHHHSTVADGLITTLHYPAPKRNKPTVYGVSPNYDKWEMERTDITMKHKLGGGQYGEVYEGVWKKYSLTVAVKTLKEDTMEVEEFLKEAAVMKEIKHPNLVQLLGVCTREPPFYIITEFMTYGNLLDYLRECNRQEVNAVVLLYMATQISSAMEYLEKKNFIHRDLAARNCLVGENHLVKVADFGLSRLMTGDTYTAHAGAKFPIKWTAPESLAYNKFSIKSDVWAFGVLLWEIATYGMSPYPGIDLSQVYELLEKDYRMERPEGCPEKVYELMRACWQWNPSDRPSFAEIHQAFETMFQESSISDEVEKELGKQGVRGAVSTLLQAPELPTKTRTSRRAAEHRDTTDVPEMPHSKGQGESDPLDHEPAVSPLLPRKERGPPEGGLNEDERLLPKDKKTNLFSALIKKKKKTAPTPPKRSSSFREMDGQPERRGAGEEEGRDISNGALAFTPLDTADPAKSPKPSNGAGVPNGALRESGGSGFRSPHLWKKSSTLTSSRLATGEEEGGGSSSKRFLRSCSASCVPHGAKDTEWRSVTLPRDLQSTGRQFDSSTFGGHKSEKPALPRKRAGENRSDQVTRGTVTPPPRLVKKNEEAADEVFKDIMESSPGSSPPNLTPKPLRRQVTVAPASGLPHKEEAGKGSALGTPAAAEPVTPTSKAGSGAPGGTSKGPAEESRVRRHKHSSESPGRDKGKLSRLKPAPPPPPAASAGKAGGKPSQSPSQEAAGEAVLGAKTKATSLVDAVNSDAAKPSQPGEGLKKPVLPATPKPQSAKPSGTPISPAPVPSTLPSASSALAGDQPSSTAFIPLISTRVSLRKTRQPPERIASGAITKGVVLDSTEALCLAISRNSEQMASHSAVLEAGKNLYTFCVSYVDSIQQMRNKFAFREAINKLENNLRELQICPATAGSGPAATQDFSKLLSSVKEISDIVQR
Sequence of Ras and Rab interactor 1/Tyrosine-protein kinase ABL1 (Q13671 whole entry): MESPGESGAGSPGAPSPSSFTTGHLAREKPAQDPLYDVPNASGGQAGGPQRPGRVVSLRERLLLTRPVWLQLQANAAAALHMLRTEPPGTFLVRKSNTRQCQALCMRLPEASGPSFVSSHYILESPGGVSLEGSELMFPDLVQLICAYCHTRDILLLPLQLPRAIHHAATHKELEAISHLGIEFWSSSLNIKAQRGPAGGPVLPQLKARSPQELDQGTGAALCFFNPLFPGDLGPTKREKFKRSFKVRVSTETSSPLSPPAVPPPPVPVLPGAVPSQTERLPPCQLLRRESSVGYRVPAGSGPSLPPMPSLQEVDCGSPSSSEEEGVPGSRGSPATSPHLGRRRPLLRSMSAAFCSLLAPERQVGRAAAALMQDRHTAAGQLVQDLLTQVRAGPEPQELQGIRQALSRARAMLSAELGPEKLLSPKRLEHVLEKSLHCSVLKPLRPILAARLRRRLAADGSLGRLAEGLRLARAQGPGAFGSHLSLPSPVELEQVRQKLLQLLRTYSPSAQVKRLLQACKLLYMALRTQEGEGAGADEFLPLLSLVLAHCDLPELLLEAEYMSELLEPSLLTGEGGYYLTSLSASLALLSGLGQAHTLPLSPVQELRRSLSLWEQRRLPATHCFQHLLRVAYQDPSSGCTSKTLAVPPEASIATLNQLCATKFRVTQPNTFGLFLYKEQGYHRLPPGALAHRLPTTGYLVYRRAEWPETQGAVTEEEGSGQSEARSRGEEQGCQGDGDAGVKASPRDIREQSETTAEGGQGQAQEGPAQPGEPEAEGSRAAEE

[6] = target: T1, Heat shock factor protein 1 (Mus musculus, UniProt P38532); assay: decrease of HSF1-responsive luciferase luminescence – cell-based, NIH3T3, dose retest, confirmation (AID 2382); type: functional;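 note: NIH3T3 fibroblasts with HSF1-driven luciferase reporter stressed by proteasome inhibitor MG132; luminescence from HSF1-driven luciferase expression after 8 hours of MG132 stress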
T1 sequence (P38532 whole entry): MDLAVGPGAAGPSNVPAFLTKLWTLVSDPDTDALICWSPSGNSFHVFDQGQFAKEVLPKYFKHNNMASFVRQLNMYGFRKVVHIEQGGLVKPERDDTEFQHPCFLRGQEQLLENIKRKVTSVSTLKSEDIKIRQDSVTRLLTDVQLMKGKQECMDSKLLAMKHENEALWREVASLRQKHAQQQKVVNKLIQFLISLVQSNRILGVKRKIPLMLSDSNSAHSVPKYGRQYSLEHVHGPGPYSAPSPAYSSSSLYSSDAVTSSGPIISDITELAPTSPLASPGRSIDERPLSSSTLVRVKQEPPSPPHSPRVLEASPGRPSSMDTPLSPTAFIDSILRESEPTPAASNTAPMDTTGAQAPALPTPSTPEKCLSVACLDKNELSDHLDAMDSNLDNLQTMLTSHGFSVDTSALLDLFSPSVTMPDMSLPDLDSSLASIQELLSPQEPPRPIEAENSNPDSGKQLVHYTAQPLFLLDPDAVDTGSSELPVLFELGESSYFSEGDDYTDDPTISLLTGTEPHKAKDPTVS

[7] = test system: HEK293; assay: optical interference in Abeta FP readout, dose response, artefact control for IDE activator project, biochemical, fluorescence polarization (AID 588442); type: functional, cell-based; conditions: Homo sapiens
[8] = test system: HEK293; assay: membrane integrity loss in HEK cells – cell-based, fluorescence, cytotoxicity control for IDE activator project, dose response (AID 588440); type: functional; conditions: Homo sapiens;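 note: cytotoxicity by LDH release measuring loss of membrane integrity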
[9] = target: T2, Insulin-degrading enzyme (Homo sapiens, UniProt P14735); assay: cellular IDE activation of Abeta substrate cleavage – fluorescence polarization, HEK cells, dose response (AID 588439); type: functional, cell-based
T2 sequence (P14735 whole entry): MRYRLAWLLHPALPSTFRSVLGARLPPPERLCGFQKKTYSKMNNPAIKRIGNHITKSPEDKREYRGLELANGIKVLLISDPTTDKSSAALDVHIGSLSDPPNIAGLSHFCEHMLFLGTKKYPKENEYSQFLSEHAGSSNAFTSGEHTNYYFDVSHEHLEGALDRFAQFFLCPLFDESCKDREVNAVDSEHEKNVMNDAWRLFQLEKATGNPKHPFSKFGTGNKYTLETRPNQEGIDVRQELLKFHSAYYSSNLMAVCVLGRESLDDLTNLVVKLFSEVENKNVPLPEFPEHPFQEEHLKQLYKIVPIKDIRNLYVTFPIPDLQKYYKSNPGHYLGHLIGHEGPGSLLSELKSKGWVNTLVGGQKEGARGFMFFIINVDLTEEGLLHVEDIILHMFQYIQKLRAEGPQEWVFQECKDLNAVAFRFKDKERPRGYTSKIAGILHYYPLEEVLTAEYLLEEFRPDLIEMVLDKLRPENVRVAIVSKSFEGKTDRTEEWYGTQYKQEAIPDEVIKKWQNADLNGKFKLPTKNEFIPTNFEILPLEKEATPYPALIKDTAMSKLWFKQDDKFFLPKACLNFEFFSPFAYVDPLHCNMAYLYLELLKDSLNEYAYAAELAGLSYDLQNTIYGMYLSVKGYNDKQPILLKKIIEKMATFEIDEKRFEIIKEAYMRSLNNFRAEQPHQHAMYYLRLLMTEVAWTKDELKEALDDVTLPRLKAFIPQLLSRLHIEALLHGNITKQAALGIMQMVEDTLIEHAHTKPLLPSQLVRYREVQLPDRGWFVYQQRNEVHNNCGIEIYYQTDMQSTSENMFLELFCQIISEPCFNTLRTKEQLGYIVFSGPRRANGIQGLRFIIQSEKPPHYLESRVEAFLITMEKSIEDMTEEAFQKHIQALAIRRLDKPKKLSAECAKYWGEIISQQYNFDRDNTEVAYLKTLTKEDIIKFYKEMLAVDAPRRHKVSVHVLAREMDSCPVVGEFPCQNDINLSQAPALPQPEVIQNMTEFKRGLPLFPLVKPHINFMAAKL

[10] = target: T2, Insulin-degrading enzyme; assay: recombinant IDE activation, cell-free – biochemical, fluorescence polarization, counter-screen for IDE activator project, dose response (AID 588681)
[11] = target: T3, Interleukin-8 (Homo sapiens, UniProt P10145); assay: Dose Response confirmation of uHTS small molecule hits for cystic fibrosis induced NFkb Inhibitors in a PAF-induced IL8 counterscreen.; type: functional; conditions: read-out: IC50_Mean
T3 sequence (P10145 whole entry): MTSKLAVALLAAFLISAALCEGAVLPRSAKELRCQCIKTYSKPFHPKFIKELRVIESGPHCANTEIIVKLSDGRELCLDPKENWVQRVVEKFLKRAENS

[12] = target: T3, Interleukin-8; assay: Dose Response confirmation of uHTS small molecule hits for cystic fibrosis induced NFkb Inhibitors in a TNFa-induced IL8 counterscreen.; type: functional; conditions: read-out: IC50_Mean
[13] = target: T4, Corticotropin-releasing factor receptor 2/Corticotropin-releasing factor-binding protein (Homo sapiens, UniProt P24387+Q13324); assay: activators of CRF receptor 2 with binding protein – uHTS hits, confirmation (AID 602473); type: functional; conditions: read-out: EC50_Mean
T4 sequence (Q13324 whole entry): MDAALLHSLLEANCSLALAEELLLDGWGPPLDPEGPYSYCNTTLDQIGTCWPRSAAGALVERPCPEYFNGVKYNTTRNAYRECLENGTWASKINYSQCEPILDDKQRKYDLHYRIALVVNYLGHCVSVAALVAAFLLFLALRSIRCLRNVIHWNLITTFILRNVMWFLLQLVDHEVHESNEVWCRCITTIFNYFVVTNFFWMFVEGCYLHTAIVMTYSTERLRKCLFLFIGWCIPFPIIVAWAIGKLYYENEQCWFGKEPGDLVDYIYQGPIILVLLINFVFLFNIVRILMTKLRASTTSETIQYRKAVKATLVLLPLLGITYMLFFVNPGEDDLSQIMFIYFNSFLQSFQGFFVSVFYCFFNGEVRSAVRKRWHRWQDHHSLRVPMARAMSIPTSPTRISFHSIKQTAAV
T4 sequence (P24387 whole entry): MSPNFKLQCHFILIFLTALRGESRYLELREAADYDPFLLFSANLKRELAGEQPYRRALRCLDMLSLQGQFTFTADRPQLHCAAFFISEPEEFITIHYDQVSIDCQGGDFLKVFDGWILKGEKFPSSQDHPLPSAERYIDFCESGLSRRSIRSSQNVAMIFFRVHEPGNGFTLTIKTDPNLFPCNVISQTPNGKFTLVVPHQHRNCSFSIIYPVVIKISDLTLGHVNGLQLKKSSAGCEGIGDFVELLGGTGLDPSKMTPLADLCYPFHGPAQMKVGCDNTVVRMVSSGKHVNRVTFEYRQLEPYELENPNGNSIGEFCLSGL

[14] = target: T4, Corticotropin-releasing factor receptor 2/Corticotropin-releasing factor-binding protein; assay: Dose Response confirmation of uHTS hits for small molecule antagonists of the CRF-binding protein and CRF-R2 receptor complex.; type: functional; conditions: read-out: IC50_Mean
[15] = blockers of CRF-binding protein–CRF-R2 complex – cell-based, uHTS hits, 384-well, dose response (AID 651639); type: functional, Homo sapiens; conditions: read-out: IC50_Mean

Sequence of Mitochondrial peptide methionine sulfoxide reductase (P54149 whole entry): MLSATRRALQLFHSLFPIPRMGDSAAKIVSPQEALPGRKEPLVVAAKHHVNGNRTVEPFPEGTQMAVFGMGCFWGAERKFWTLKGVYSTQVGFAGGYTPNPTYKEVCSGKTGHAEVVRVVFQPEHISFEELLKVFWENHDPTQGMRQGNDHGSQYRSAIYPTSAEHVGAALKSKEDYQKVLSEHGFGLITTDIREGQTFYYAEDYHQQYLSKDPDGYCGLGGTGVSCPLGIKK

In the case of Sc1nnc(C2CCCCC2)n1/N=C/c1ccccc1Cl, the IC50 [1] is reported as 155 µM (inactive).
With COCCN1C(=O)c2ccc(C(=O)Nc3cccnc3)cc2C1=O the AC50 [2] was 4.26 µM (active).
For Cc1sc2nc(CN3CCOCC3)nc(Cl)c2c1C, the IC50 [3] was > 64.5 µM (inactive) and the IC50 [4] was > 64.5 µM (inactive).
For CCCn1c2ccccc2c2nnc(SCc3[nH]c(O)nc3C(=O)CCCCC(=O)OCC)nc21, the IC50 [5] was 3.23 µM (active) and the EC50 [6] was > 195 µM (not active).
For O=C(Nc1cc(S(=O)(=O)N2CCOCC2)ccc1N1CCOCC1)c1ccccc1F, the EC50 [7] was > 54.7 µM (inactive), the IC50 [8] was > 89.2 µM (inactive) and the EC50 [9] was > 54.7 µM (inactive). The EC50 [10] was > 54.7 µM (inactive).
For CC(=O)c1cccc(NC(=O)Nc2cccnc2)c1, the IC50 [11] was 45.7 µM (inactive) and the IC50 [12] was 43.8 µM (inactive).
In the case of Cc1cc(C(=O)N2CCN(c3ccc([N+](=O)[O-])cc3)CC2)co1, the EC50 [13] is reported as > 53 µM (inactive), the IC50 [14] is reported as 36.1 µM (active) and the IC50 [15] is reported as > 20 µM (inactive).
